Read-outs that look alike come from different tables or passages of the source. One block for each compound: values may come before it.
Assays:
psoriasis = settings: cited from earlier work
JAK1 [1] = biological target: T1, JAK1 (Homo sapiens, UniProt P23458); assay: JAK1 cellular ELISA assay using PBMC cells (IL-6 stimulated STAT3 phosphorylation); type: cell-based; settings: IL-6 100 ng/ml, 25 min
Experimental: Purpose: test cellular JAK1 activity using the IL-6 stimulated STAT3 phosphorylation assay in PBMC cells.
• 1. Plate PBMC cells to 96-well plate at density of ~300,000 cell/well; • 2. Add different concentrations of test article to wells, maintain in incubator at 37° C. and 5% CO2 for 1 hour; • 3. Add IL-6 (final concentration: 100 ng/ml) to stimulate for 25 min in the above incubator; • 4. After stimulation, transfer the suspension to 1.5 mL tube, centrifuge at 200 g for 5 min, collect cells, add 100 μL 1× lysate, lyse on ice for 1 hour; • 5. Centrifuge at 4° C. and 12000 rpm for 10 min, take the supernatant and analyze according to instructions of the ELISA kit.

JAK1 [2] = biological target: T1, JAK1; assay: JAK1 biochemical test (33P-ATP filter binding kinase assay); settings: room temperature, 2 hours
Experimental: (§1) The tests were conducted by Reaction Biology Corp, Malvern, PA (Anastassiadis et al. Nat Biotechnol. 2011; 29(11):1039-45). The step is briefly described as follows.
(§2) Basic reaction buffer: 20 mM Hepes (pH 7.5), 10 mM MgCl2, 1 mM EGTA, 0.02% Brij35, 0.02 mg/ml BSA, 0.1 mM Na3VO4, 2 mM DTT and 1% DMSO. The required cofactor was added to each kinase reaction respectively.
(§3) • 1. Preparing the designated substrate in the newly prepared basic reaction buffer; • 2. Transferring the required cofactor to the above matrix solution; • 3. Transferring the designated kinase to the substrate solution and mixing well slightly; • 4. Transferring a compound of formulae I-III in DMSO to the kinase reaction mixture with Acoustic technique (Echo550; nanoliter range), culturing for 20 minutes at room temperature; • 5. Introducing ^33P-ATP (specific activity: 10 μCi/μl) to the reaction mixture to trigger a reaction; • 6. Culturing at room temperature and conducting a kinase reaction for 2 hours; • 7. Plotting the reaction on P81 ion exchange paper; • 8. Testing the kinase activity with a filter binding assay.

[3] = Human liver microsome stability assay; type: in vitro ADME; settings: liver microsomes
Experimental: The assay was conducted following procedures as below: • 1. Prepared 8 sample plates of 96-well plates, named as T0, T3, T6, T9, T15, T30, NCF30, BLANK. • 2. Dispensed 100 μl/well human microsomes to each plate. • 3. Dispensed 2 μL compound or control working solution/well to each plate (T0, T3, T6, T9, T15, T30, NCF30) except matrix blank and incubation plates at 37° C. for about 10 min. The final concentration of test compound was 1 μM. For T0, added 600 (μL/well) of cold stop solution immediately. • 4. Added 98 μL 100 mM potassium phosphate buffer/well to NCF30 plate, incubated at 37° C., start reaction. • 5. After pre-warming, dispensed NADPH regenerating system to 96-well plate as reservoir according to the plate map. Then added 98 μL/well to every plate (Blank, T30, T15, T9, T6, T3, T0) to start reaction. • 6. The reaction was stopped by the addition of 600 μl of cold stop solution at 0, 3, 6, 9, 15 and 30 minutes. Samples were shaked for 10 min and then centrifuged at 3220 g for 20 min. The supernatant was taken from each well and diluted with dilution solution before being analyzed by LC/MS/MS. • 7. […]
The slope value, k, was determined by linear regression of the natural logarithm of the remaining percentage of the parent drug vs. incubation time curve. The in vitro t1/2 was determined from the slope value: […]

TYK2 [4] = biological target: T2, TYK2 (Homo sapiens, UniProt P29597); assay: TYK2 biochemical test (33P-ATP filter binding kinase assay); settings: room temperature, 2 hours
Experimental: as §1, §2, §3

TYK2/JAK1/JAK2 = TYK2/JAK1/JAK2 biochemical tests, comparative summary
Experimental: as §1, §2, §3

[5] = Mini-pig dermal pharmacokinetic study; type: in vivo, Guangxi Bama mini-pigs; settings: for AUC(0-t): 15 mg/cm^2, topical ointment
Experimental: The aim of this study was to obtain the distribution of test articles in mini-pig after topical administration. Test articles were formulated as ointment and then applied to 2 female Guangxi Bama mini-pigs (8-12 kg) (Wujiang Tian yu Biological Technology). Briefly, total area estimated to be approximately 10% of the total body surface area were clipped free of hair before treatment using electric clippers. The test article was dosed evenly to the skin with 15 mg/cm^2 at 0 h, 8 h and 24 h. Test articles were removed before next dosing. Blood and skin samples were collected at 24 h (pre-dosing), 25 h, 28 h, 32 h, 48 h and 96 h. The blood was taken via peripheral vein of each animal into pre-chilled tube containing potassium (K2) EDTA as anticoagulant. Exposed skin was washed using ethanol and then wiped with dry cotton swab before skin sample collection. Eight samples of dosing skin were drilled with a biopsy punch (0.7 cm diameter) for each time point. Epidermis and dermis were separated and the eight samples from the same time point were pooled together and homogenized. All the above samples and homogenate were quantified by LC-MS/MS analysis.

TYK2 [6] = biological target: T2, TYK2; assay: TYK2 cellular ELISA assay using NK92 cells (IL-12 and IL-18 stimulated IFNγ excretion); type: cell-based; settings: IL-12 2 ng/ml and IL-18 5 ng/ml, 24 hours
Experimental: Purpose: test cellular TYK2 activity using IL-12 and IL-18 stimulated IFNγ excretion assay in NK92 cells.
• 1. Replace NK92 cell media with IL-2 by media without IL-2, maintain overnight; • 2. Plate NK92 cells to 96-well plate at density of ~150,000 cell/well; • 3. Add different concentrations of test article to wells, maintain in incubator at 37° C. and 5% CO2 for 1 hour; • 4. Add IL-12 (final concentration: 2 ng/ml) and IL-18 (final concentration: 5 ng/ml) to stimulate for 24 hours in the above incubator; • 5. After 24 hours, centrifuge at 2000 rpm for 5 min, take the supernatant and analyze according to instructions of the ELISA kit.

[7] = topical formulation, 1.2-37.6 g per application, twice a day; cited from earlier work
JAK3 = biological target: T3, JAK3 (Homo sapiens, UniProt P52333); assay: JAK3 biochemical test (33P-ATP filter binding kinase assay); settings: room temperature, 2 hours
T3 sequence (P52333 1-1124): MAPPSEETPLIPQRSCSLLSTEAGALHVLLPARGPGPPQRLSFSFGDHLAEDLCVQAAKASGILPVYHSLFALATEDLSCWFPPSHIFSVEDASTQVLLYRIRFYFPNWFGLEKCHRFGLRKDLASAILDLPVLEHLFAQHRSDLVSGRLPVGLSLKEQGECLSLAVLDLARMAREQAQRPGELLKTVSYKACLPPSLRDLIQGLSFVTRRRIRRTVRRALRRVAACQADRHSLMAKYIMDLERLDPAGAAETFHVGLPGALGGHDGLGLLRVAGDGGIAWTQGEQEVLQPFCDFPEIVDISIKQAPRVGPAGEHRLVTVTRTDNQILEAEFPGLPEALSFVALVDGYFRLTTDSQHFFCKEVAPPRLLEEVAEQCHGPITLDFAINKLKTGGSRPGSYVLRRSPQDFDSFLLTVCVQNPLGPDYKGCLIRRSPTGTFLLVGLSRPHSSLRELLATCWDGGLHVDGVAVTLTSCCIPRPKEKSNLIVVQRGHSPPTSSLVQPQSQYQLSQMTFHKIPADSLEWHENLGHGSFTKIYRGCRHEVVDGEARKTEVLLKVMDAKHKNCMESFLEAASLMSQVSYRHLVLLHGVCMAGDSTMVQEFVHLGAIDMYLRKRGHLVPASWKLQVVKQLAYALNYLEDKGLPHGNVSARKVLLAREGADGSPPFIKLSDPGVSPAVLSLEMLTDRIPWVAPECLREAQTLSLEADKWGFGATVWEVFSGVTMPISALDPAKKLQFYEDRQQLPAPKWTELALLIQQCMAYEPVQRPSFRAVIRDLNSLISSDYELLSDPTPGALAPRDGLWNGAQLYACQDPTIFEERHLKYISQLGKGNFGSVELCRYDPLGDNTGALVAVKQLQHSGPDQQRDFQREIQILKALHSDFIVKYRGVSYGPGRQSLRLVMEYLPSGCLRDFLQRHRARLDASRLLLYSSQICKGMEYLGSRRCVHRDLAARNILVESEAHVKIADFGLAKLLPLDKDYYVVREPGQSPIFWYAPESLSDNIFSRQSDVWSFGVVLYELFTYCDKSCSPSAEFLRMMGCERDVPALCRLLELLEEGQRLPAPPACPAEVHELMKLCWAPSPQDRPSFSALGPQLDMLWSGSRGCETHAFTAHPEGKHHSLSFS
Experimental: as §1, §2, §3

JAK2 = JAK2 (Homo sapiens, UniProt O60674); assay: JAK2 biochemical test (33P-ATP filter binding kinase assay); settings: room temperature, 2 hours
Experimental: as §1, §2, §3

T1 sequence (P23458 whole entry): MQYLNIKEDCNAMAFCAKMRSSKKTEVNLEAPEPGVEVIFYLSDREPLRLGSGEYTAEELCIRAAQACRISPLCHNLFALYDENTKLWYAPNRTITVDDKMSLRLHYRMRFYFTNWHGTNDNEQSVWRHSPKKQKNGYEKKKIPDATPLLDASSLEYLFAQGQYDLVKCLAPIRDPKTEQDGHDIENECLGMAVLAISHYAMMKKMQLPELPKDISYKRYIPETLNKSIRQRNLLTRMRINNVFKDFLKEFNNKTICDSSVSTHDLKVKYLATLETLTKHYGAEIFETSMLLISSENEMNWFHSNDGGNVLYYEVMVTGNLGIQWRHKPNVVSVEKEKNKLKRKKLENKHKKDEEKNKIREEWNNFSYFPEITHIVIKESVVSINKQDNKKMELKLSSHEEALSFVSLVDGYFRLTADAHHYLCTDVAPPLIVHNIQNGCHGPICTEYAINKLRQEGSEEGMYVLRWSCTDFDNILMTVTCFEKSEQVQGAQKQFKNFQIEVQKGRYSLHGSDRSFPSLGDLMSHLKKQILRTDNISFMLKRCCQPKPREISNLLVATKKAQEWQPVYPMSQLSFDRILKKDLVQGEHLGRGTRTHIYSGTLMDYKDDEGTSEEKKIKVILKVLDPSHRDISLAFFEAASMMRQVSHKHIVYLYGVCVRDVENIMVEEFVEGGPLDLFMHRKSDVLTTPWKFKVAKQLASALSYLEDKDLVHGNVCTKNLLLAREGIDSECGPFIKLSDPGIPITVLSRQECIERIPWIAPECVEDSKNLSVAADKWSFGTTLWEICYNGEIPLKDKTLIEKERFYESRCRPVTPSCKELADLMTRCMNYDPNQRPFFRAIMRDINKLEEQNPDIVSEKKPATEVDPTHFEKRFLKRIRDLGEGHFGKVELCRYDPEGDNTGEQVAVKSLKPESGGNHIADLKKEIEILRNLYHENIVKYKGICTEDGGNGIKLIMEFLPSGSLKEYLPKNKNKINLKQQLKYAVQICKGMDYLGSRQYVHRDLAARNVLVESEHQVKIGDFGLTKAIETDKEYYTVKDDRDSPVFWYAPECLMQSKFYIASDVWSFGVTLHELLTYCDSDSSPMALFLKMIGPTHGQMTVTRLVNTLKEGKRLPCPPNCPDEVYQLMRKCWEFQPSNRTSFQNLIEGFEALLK
T2 sequence (P29597 whole entry): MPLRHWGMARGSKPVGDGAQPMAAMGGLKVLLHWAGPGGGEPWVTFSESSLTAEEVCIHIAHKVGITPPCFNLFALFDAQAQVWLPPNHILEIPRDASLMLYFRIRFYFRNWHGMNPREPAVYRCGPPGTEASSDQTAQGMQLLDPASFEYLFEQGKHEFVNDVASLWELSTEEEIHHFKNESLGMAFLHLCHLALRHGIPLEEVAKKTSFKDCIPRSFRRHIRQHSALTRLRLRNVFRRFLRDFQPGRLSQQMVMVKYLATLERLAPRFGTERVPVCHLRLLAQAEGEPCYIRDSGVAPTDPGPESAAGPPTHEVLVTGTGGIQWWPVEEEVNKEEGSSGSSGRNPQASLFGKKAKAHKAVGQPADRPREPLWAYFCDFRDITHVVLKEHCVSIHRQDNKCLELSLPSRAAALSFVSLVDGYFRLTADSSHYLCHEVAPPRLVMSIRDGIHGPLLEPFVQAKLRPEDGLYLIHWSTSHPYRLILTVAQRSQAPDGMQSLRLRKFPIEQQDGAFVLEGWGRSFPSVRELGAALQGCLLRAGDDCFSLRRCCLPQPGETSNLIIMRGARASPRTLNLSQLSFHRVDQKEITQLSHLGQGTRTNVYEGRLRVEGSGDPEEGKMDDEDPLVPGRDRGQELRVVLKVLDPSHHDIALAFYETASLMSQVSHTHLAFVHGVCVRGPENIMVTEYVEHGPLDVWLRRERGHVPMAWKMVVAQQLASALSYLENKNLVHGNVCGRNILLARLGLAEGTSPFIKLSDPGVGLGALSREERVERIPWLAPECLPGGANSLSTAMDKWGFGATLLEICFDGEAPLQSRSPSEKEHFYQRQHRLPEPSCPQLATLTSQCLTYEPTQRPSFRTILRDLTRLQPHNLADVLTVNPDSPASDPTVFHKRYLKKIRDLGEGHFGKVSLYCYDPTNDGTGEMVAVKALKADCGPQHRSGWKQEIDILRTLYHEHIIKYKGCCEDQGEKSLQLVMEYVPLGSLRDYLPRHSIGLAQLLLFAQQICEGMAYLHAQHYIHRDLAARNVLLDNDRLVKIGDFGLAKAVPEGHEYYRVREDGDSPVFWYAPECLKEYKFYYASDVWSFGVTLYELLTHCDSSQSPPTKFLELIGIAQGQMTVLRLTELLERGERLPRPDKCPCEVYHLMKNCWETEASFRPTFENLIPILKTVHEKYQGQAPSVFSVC
Chain of JAK2 (O60674 whole entry): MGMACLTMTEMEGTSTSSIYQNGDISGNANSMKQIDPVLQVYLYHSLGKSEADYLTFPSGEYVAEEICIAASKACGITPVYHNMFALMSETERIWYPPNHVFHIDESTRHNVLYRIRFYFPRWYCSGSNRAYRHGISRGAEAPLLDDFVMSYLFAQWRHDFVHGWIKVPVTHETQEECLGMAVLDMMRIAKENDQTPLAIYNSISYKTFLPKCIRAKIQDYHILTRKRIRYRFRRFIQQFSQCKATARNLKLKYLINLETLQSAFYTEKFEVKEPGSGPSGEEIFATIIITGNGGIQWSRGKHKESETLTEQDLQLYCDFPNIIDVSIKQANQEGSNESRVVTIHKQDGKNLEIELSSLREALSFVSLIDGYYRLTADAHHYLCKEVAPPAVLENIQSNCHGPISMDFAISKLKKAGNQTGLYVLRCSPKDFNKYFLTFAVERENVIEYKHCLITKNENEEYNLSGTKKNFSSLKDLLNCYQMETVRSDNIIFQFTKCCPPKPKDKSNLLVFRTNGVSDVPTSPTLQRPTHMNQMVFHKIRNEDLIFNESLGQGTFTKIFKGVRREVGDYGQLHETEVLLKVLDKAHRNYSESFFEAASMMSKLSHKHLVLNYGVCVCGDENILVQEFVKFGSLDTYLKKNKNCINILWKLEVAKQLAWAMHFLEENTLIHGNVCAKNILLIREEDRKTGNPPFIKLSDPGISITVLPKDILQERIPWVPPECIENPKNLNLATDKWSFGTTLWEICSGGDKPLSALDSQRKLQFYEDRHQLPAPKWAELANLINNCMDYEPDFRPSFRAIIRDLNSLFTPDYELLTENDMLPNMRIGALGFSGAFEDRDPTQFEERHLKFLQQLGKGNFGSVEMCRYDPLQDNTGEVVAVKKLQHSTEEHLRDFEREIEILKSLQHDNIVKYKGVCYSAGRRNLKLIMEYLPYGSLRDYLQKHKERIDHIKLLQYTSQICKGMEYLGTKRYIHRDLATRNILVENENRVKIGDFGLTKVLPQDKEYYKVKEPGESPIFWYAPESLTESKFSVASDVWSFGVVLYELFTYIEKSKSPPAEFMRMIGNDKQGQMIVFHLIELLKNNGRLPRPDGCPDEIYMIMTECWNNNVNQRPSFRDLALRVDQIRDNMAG

SMILES: CNC(=O)c1nnc(NC(=O)C2CC2)cc1Nc1cccc(-c2ncn(C)n2)c1OC [deucravacitinib]
Phase 2 and Phase 3 results in patients with psoriasis (psoriasis): positive Phase 2 and Phase 3 results

IC50 (JAK1 [1]): < 500 nM | IC50 (JAK1 [2]): < 1 nM | half-life at 1 µM [3]: 21 min | microsomal CLint at 1 µM ([3]; read-out: in vitro CLint(mic)): 65.9 µL/min/mg | IC50 (TYK2 [4]): < 1 nM | AUC(0-t) ([5]; minipig, plasma, topical or ocular, 15 mg/cm^2 at 0 h, 8 h and 24 h, plasma, read-out: Plasma AUC0-last): 0.103 µg·h/mL | AUC(0-t) ([5]; minipig, topical or ocular, 15 mg/cm^2 at 0 h, 8 h and 24 h, dermis, read-out: Dermis AUC0-last): 517 µg·h/mL | AUC(0-t) ([5]; minipig, topical or ocular, 15 mg/cm^2 at 0 h, 8 h and 24 h, epidermis, read-out: Epidermis AUC0-last): 3520 µg·h/mL | Kp ([5]; minipig, topical or ocular, topical ointment, 15 mg/cm^2 at 0 h, 8 h and 24 h, read-out: Dermis/Plasma ratio (AUC)): 5020 | IC50 (TYK2 [6]): < 10 nM
SMILES: Cc1cnc(Nc2cnn(C)c2)nc1-c1cnn([C@H](CC#N)C2CCCC2)c1 [Compound 4, (R)-3-cyclopentyl-3-(4-(5-methyl-2-((1-methyl-1H-pyrazol-4-yl)amino)pyrimidin-4-yl)-1H-pyrazol-1-yl) propanenitrile]
TYK2/JAK1/JAK2 inhibition (in words) (TYK2/JAK1/JAK2): potent TYK2/JAK1/JAK2 inhibitors | systemic exposure and skin distribution (in words) ([5]; topical administration): minimal systemic exposure and enrichment in dermis and epidermis

SMILES: N#CC[C@H](C1CCCC1)n1cc(-c2ncnc3[nH]ccc23)cn1 [ruxolitinib]
Cmax [7]: 449 ± 883 nM

IC50 (JAK3): > 10 nM | IC50 (JAK1 [1]): < 500 nM | IC50 (JAK1 [2]): < 1 nM | IC50 (TYK2 [4]): < 1 nM | IC50 (JAK2): < 1 nM
SMILES: CCS(=O)(=O)N1CC(CC#N)(n2cc(-c3nc(Nc4cnn(C)c4)ncc3C)cn2)C1 [Compound 18, 2-(1-(ethylsulfonyl)-3-(4-(5-methyl-2-((1-methyl-1H-pyrazol-4-yl)amino)pyrimidin-4-yl)-1H-pyrazol-1-yl)azetidin-3-yl)acetonitrile]
TYK2/JAK1/JAK2 inhibition (in words) (TYK2/JAK1/JAK2): potent TYK2/JAK1/JAK2 inhibitors

— patent US20260347348A1, “JAK1/JAK2/TYK2 Inhibitors For Topical Treatment of Dermatological Diseases” (Hangzhou Highlightll Pharmaceutical Co., Ltd, priority 2022, published 2026)
